# Patent publication US7923004B2 (priority 2006, dated 2011)
# Tests used:
# Format in all cases: cell-based
# [1] = Cell Titer-Glo Cell Viability Assay, genotype 1a cells; conditions: human, En5-3/Htat2ANeo (HCV genotype 1a replicon) cells, HCV-1a assays, read-out: Cytotoxicity* (CC50)
# Description: (§1) Cell Seeding and Compound Treatment: Huh-Luc-Neo (Genotype 1b) or En5-3/Htat2ANeo (Genotype 1a) cells are seeded at 5000-7000/well in an opaque-walled 96 plate with Growth Medium (DMEM phenol red free+PS+2 mM glutamine; 100 ul/well). The compounds to be tested for inhibition of cell viability are added to the experimental wells so as to generate a dose response curve (8-9 concentrations, 10 μl/well at 10× assay concentration) and the cells are then incubated (5% CO2, 37° C.) for 72 h.
# (§2) Reagent Preparation and Assay: After completion of the incubation period the cell viability measurements are made using the Cell Titre Glo Assay (Promega) according to the manufacturer's recommended protocol. Briefly, the CellTiter-Glo Buffer is thawed and equilibrated to room temperature prior to use. The lyophilized CellTiter-Glo Substrate is also equilibrated to room temperature prior to use. 10 ml of CellTiter-Glo Buffer is then transferred to 1 vial of CellTiter-Glo Substrate and mixed gently with a Vortex. 100 μl of CellTiter-Glo Assay reagent (CellTiter-Glo Buffer+CellTiter-Glo Substrate Mixture) is added to each well. The well contents are mixed for 5 min. on an orbital shaker at room temperature to induce cell lysis and the luminescence is then measured using a luminometer.
# [2] = test system: HCV genotype 1a replicon (En5-3/Htat2ANeo cells); test: HCV-1a Replicon RNA (Taqman) inhibition assay; conditions: Hepatitis C virus, 72 h
# [3] = test system: HCV genotype 1b replicon (Huh-Luc-Neo cells); test: HCV Replicon Luciferase Assay; conditions: Hepatitis C virus; Huh-Luc-Neo cells, genotype 1b, 72 h; read-out: HCV-1b Replicon Inhibition*, Luciferase (EC50)
# [4] = Cell Titer-Glo Cell Viability Assay, genotype 1b cells; conditions: human, Huh-Luc-Neo (HCV genotype 1b replicon) cells, HCV genotype 1b assays, read-out: Cytotoxicity* (CC50)
# Description: as §1, §2
# [5] = test system: HCV genotype 1b replicon (Huh-Luc-Neo cells); test: HCV Replicon RNA (Taqman) Assay, genotype 1b; conditions: Hepatitis C virus; Huh-Luc-Neo cells, genotype 1b, HCV RNA, 72 h; read-out: HCV-1b Replicon Inhibition*, Taqman (EC50)
Structure (SMILES),CC50 at 72 h [1] [µM],EC50 [2] [µM],EC50 [3] [µM],CC50 at 72 h [4] [µM],EC50 [5] [µM]
N#CCCn1cc(C#Cc2ccc(NC(=O)[C@@H]3COCCN3C(=O)[C@H](NC(=O)N3CCOCC3)c3ccccc3)cc2)c(-c2cc(Cl)ccc2O)n1 [Compound 4],> 33.3,< 1,–,–,–
Cn1nccc1C(=O)N[C@@H](C(=O)N1CCOC[C@H]1C(=O)Nc1ccc(C#Cc2cn(CCC#N)nc2-c2cc(Cl)ccc2O)cc1)c1ccccc1 [Compound 1],> 33.3,< 1,–,–,–
COc1ccc(C[C@H](NC(=O)OC(C)(C)C)C(=O)N2CCCCC2C(=O)Nc2ccc(C#Cc3cn(C)nc3-c3cc(C)ccc3O)cc2)cc1 (stereo partly shown) [Compound 4],–,–,< 1,< 1,< 1
Cn1cc(C#Cc2ccc(NC(=O)[C@H]3CCCCN3C(=O)C(NC(=O)OC(C)(C)C)c3ccccc3)cc2)c(-c2cc(Br)ccc2O)n1 (stereo partly shown) [Example 20],–,–,< 1,10 to 100,< 1
CCOC(=O)c1ccc(O)c(-c2nn(C)cc2C#Cc2ccc(NC(=O)[C@@H]3CCCCN3C(=O)[C@H](NC(=O)OC(C)(C)C)c3ccccc3OC)cc2)c1 [Compound 31],–,–,< 1,> 100,< 1
Cn1cc(C#Cc2ccc(NC(=O)[C@@H]3CCCCN3C(=O)[C@H](NC(=O)OC(C)(C)C)c3cccs3)cc2)c(-c2cc(Br)ccc2O)n1 [Example 48],–,–,< 1,> 100,< 1
Cc1ccc(O)c(-c2nn(C)cc2C#Cc2ccc(NC(=O)[C@@H]3CCCCN3C(=O)[C@@H](Cc3ccccc3)NC(=O)OC(C)(C)C)cc2)c1 [Compound 15],–,–,< 1,> 100,< 1
Cc1ccc(O)c(-c2nn(C)cc2C#Cc2ccc(NC(=O)C3CCCCN3C(=O)[C@H](Cc3ccc(Cl)cc3)NC(=O)OC(C)(C)C)cc2)c1 (stereo partly shown) [Compound 23],–,–,< 1,10 to 100,< 1
Cc1ccc(O)c(-c2nn(C)cc2C#Cc2ccc(NC(=O)C3CCCCN3C(=O)[C@@H](NC(=O)OC(C)(C)C)C3CCCCC3)cc2)c1 (stereo partly shown) [Compound 13],–,–,1 to 10,> 100,< 1
Cc1ccc(O)c(-c2nn(C)cc2C#Cc2ccc(NC(=O)[C@@H]3CCCCN3C(=O)[C@H](NC(=O)OC(C)(C)C)c3cccs3)cc2)c1 [Example 50],–,–,< 1,> 100,< 1
Cc1ccc(O)c(-c2nn(C)cc2C#Cc2ccc(NC(=O)C3CCCCN3C(=O)[C@H](Cc3ccc(C(N)=O)cc3)NC(=O)OC(C)(C)C)cc2)c1 (stereo partly shown) [Compound 24],–,–,< 1,10 to 100,< 1
Cc1ccc(O)c(-c2nn(C)cc2C#Cc2ccc(NC(=O)[C@@H]3CCCCN3C(=O)[C@H](NC(=O)OC(C)(C)C)c3ccccc3)cc2)c1 [Compound 16],–,–,< 1,> 100,< 1
Cc1ccc(O)c(-c2nn(C)cc2C#Cc2ccc(NC(=O)C3CCCCN3C(=O)[C@H](Cc3ccc(Br)cc3)NC(=O)OC(C)(C)C)cc2)c1 (stereo partly shown) [Compound 26],–,–,< 1,10 to 100,< 1
Cc1ccc(O)c(-c2nn(C)cc2C#Cc2ccc(NC(=O)[C@H]3CCCCN3C(=O)[C@H](Cc3ccccc3)NC(=O)OC(C)(C)C)cc2)c1 [Compound 2],–,–,< 1,> 100,< 1
Cc1ccc(O)c(-c2nn(C)cc2C#Cc2ccc(NC(=O)[C@@H]3CCCCN3C(=O)[C@@H](NC(=O)OC(C)(C)C)c3ccccc3)cc2)c1 [Example 17],–,–,< 1,> 100,< 1
Cc1ccc(O)c(-c2nn(C)cc2C#Cc2ccc(NC(=O)C3CCCCN3C(=O)[C@H](Cc3ccccc3)NC(=O)C3CCCCC3)cc2)c1 (stereo partly shown) [Compound 10],–,–,< 1,10 to 100,< 1
CN(C(=O)OC(C)(C)C)[C@@H](Cc1ccccc1)C(=O)N1CCCC[C@@H]1C(=O)Nc1ccc(C#Cc2cn(CCO)nc2-c2cc(Cl)ccc2O)cc1 [Compound 42],–,–,< 1,10 to 100,< 1
